Laboratory results from patent US20110306606A1, “NOVEL 2,6-SUBSTITUTED-3-NITROPYRIDINE DERIVATIVE, METHOD FOR PREPARING SAME, AND PHARMACEUTICAL COMPOSITION INCLUDING SAME” (priority 2008, published 2011).
Read-outs that look alike come from different tables or passages of the source.

Tests used:
[1] = test system: Osteoblasts (Calvarial cells); experiment: Alkaline phosphatase (ALP) activity in osteoblasts (Calvarial cells); format: cell-based, mice; conditions: Mus musculus, 72 h; 1 μM compound, 3 days, Calvarial cell; read-out: ALP activity (1 μM, % of Control) Calvarial cell
Protocol: Differentiation and activity of osteoblasts were indirectly evaluated by measuring an ALP activity having a close relationship with osteogenesis.
Osteoblasts (Calvarial cells) prepared in Experimental Example 1 and MC3T3-E1 cells (available from RIKEN Cell Bank, Japan) were collected in α-MEM supplemented with 10% FBS, followed by cell counting. The cells were dispensed into 24-well cultureware at a density of 2×10^4 cells/well. After culturing of the cells for 24 hours, the culture media were discarded and replaced with fresh media in which test compounds were diluted to a concentration of 1 μM (1 mL/well). In addition, the vehicle control group containing 0.1% DMSO was also treated. […] When the experiment was terminated, the supernatant was removed and the cells were washed three times with cold phosphate buffer at 4°. 0.2% Triton X-100 was added to the washed cells which were then subjected to three cycles of freezing at −70° and thawing at room temperature for the complete lysis of cells. The cell extracts were pooled and centrifuged to collect the cell supernatant which was used for the measurement of ALP activity and proteins. The protein concentration was measured using a BCA assay kit (manufactured by Sigma-Aldrich). For the measurement of ALP activity, p-nitrophenylphosphate was added to the cell supernatant which was then incubated at 37° for 30 minutes, and the reaction was terminated with the addition of 50 μL of 0.2N sodium hydroxide. The standard curve was plotted at the absorbance of 405 nm using p-nitrophenol as a standard material and then the absorbance of test materials thus reacted was measured to determine the production amount of p-nitrophenol.
The ALP activity was calculated by dividing the amount of p-nitrophenol produced from each test material by the protein amount and the reaction time. Therefore, the unit of ALP activity was given in terms of p-nitrophenol/μg protein/min. The results are given in Tables 28-1 and 28-2 where the ALP activity unit of each test material was given in terms of % change through the comparison between the individual test materials and the vehicle control group.

[2] = test system: Osteoblasts (Calvarial cells); conditions: ICR, mouse, 72 h, 1 μM
[3] = test system: Osteoblasts (Calvarial cells); experiment: Cytotoxicity test (MTT); conditions: 1 μM compound, 72 hours, in comparison with vehicle control
[4] = test system: formation of osteoclasts in co-culture of bone marrow cells and osteoblasts; experiment: Osteoclastogenesis inhibition via co-culture system (TRAP staining); format: cell-based, mice; conditions: 1 μM compound, 7 days co-culture, TRAP-positive multinucleated osteoclasts vs vehicle control
Protocol: Osteoclastogenesis inhibitory effects of the compounds of the present invention were evaluated via a co-culture system (Reference: Endocrinology 137(1996), 2187 to 2190, E. Jimi et al.). A specific experimental method is as follows.
1) Preparation of Bone Marrow Cells and Osteoblasts
Femora and tibia were aseptically dissected from 6 to 8-week-old male ddY mice to harvest bone marrow cells by a conventional method using a syringe. In brief, tissues were removed from the dissected bone, the bone ends were cut off with scissors, and the bone marrow was isolated by pushing a medium-containing syringe (23G) against the one end of the cut bone. The isolated bone marrow was subjected to repeated piston movement of a syringe such that single cells were obtained (Reference: Endocrinology 123(1988), 2600 to 2602, Takahashi et al.). After removal of red blood cells within the bone marrow, the bone marrow cells recovered by centrifugation were placed in an α-MEM supplemented with 10% fetal bovine serum (FBS), followed by counting of nucleated cells and then were immediately used for a co-culture system.
2) Osteoclastogenesis Inhibition Experiment Via Co-Culture System
As the medium used for a co-culture system, a differentiation medium with the addition of differentiation factors 1α,25-dihydroxyvitamin D3 (10^−8M) and dexamethasone (10^−8M) to a-MEM supplemented with 10% FBS was used for the induction of osteoclastogenesis. First, the compounds dissolved in dimethyl sulfoxide (DMSO) at a concentration of 1 mM were diluted to 2 μM using the above-mentioned differentiation medium. As a vehicle control group, 0.2% (v/v) DMSO was added to the medium. 100 μL/well of each medium was added to 96-well plates. In addition, the above prepared bone marrow cells and osteoblasts were plated onto 96-well plates at a density of 1×10^5 cells/50 μL/well and 3×10^3 cells/50 μL/well, respectively. The total volume/well was 200 μL and the final compound concentration was 1 μM. The control group was 0.1% DMSO. The cells were cultured with exchange of the culture media with fresh media containing differentiation factors and test materials at an interval of 2 to 3 days.
7 days after culturing of cells, the formation of multinucleated osteoclasts was confirmed by microscopic examination, the medium was removed from the wells and then the cells were fixed in a 10% phosphate-buffered formalin solution. The degree of formation of mature osteoclasts was measured taking advantage of the characteristics of osteoclasts showing a positive reaction to a tartrate-resistant acid phosphatase (TRAP) staining solution. The TRAP staining solution was prepared in a manner such that naphthol AS-MS phosphate as a substrate and a coloring agent (Fast Red Violet LB salt) were dissolved in N,N-dimethylformamide, and a 0.1N NaHCO3 buffer solution containing 50 mM of tartaric acid was added thereto. Among the TRAP-positive cells under a light microscope, multinucleated osteoclasts having 6 to 7 nuclei were regarded as mature osteoclasts.
The degree of inhibition of osteoclastogenesis was calculated according to the following equation 1. The results are summarized in Table 27 below (Experiments were carried out for 4 wells/experimental group (n=4), and the results are given in terms of mean±standard deviation)
Inhibition of osteoclastogenesis(%)=(1−numbers of osteoclasts observed in experimental group/numbers of osteoclasts observed in vehicle control group)×100(%) [Equation 1]

Row | SMILES | activity at 1 µM [1] [%] | Cell viability (%) Calvarial cell [2] [%] | Cell viability (%) Calvarial cell [3] [%] | Osteoclastogenesis inhibition (%) 1 μM [4] [%]
1 | CC(C)Nc1ccc([N+](=O)[O-])c(Nc2ccc(C(C)(C)C)cc2)n1 [Compound 31, 2-[4-(t-butyl)phenylamino]-6-(isopropylamino)-3-nitropyridine] | 134 | 108 | – | –
2 | CNc1ccc([N+](=O)[O-])c(Nc2ccc(N)cc2)n1 [Compound 57, 2-[4-(amino)phenylamino]-6-(methylamino)-3-nitropyridine] | 112 | 103 | – | –
3 | CC(C)Nc1ccc([N+](=O)[O-])c(Nc2ccc(N)cc2)n1 [Compound 58, 2-[4-(amino)phenylamino]-6-(isopropylamino)-3-nitropyridine] | 127 | 107 | – | –
4 | CC(C)(C)Nc1ccc([N+](=O)[O-])c(Nc2ccc(N)cc2)n1 [Compound 60, 2-[4-(amino)phenylamino]-6-(t-butylamino)-3-nitropyridine] | 131 | 119 | – | –
5 | Nc1cccc(Nc2nc(N3CCC(N)CC3)ccc2[N+](=O)[O-])c1 [Compound 79, 2-[3-(amino)phenylamino]-6-(4-aminopiperidino)-3-nitropyridine] | 133 | 99 | – | –
6 | Nc1cccc(Nc2nc(NCc3cccnc3)ccc2[N+](=O)[O-])c1 [Compound 80, 2-[3-(amino)phenylamino]-6-[(3-pyridyl)methylamino]-3-nitropyridine] | 116 | 102 | – | –
7 | Nc1cccc(Nc2nc(NCc3ccncc3)ccc2[N+](=O)[O-])c1 [Compound 81, 2-[3-(amino)phenylamino]-6-[(4-pyridyl)methylamino]-3-nitropyridine] | 123 | 100 | – | –
8 | CNc1ccc([N+](=O)[O-])c(Nc2ccc(-n3ccnc3)cc2)n1 [Compound 86, 2-[4-(imidazol-1-yl)phenylamino]-6-(methylamino)-3-nitropyridine] | 144 | 111 | – | –
9 | CC(C)Nc1ccc([N+](=O)[O-])c(Nc2ccc(-n3ccnc3)cc2)n1 [Compound 87, 2-[4-(imidazol-1-yl)phenylamino]-6-(isopropylamino)-3-nitropyridine] | 116 | 101 | – | –
10 | CN(CC1OCCO1)c1ccc([N+](=O)[O-])c(Nc2ccc(-n3ccnc3)cc2)n1 [Compound 89] | – | – | 89 | 73
11 | O=[N+]([O-])c1ccc(N2CCC(O)CC2)nc1Nc1ccc(-n2ccnc2)cc1 [Compound 90, 2-[4-(imidazol-1-yl)phenylamino]-6-(4-hydroxypiperidino)-3-nitropyridine] | 161 | 106 | – | –
12 | CC(=O)c1cccc(Nc2nc(N3CCC(O)CC3)ccc2[N+](=O)[O-])c1 [Compound 99, 2-(3-acetylphenylamino)-6-(4-hydroxypiperidino)-3-nitropyridine] | 189 | 104 | – | –
13 | CC(=O)c1cccc(Nc2nc(NC(C)(C)C)ccc2[N+](=O)[O-])c1 [Compound 104, 2-(3-acetylphenylamino)-6-(t-butylamino)-3-nitropyridine] | 112 | 97 | – | –
14 | CC(=O)c1cccc(Nc2nc(N3CCN(C)CC3)ccc2[N+](=O)[O-])c1 [Compound 105, 2-(3-acetylphenylamino)-6-(4-methylpiperazin-1-yl)-3-nitropyridine] | 121 | 90 | – | –
15 | CC(=O)c1cccc(Nc2nc(N3CCOCC3)ccc2[N+](=O)[O-])c1 [Compound 107, 2-(3-acetylphenylamino)-6-morpholino-3-nitropyridine] | 121 | 97 | – | –
16 | CC(C)CNc1ccc([N+](=O)[O-])c(Nc2ccc(N3CCOCC3)cc2)n1 [Compound 110, 2-(4-morpholinophenylamino)-6-(isobutylamino)-3-nitropyridine] | 143 | 112 | – | –
17 | Cc1nc(-c2ccc(Nc3nc(NC(C)C)ccc3[N+](=O)[O-])cc2)cs1 [Compound 133, 2-[4-(2-methylthiazol-4-yl)phenylamino]-6-(isopropylamino)-3-nitropyridine] | 122 | 102 | – | –
18 | Cc1nc(-c2ccc(Nc3nc(-n4ccnc4C(C)C)ccc3[N+](=O)[O-])cc2)cs1 [Compound 137, 2-[4-(2-methylthiazol-4-yl)phenylamino]-6-[(2-isopropyl)imidazol-1-yl]-3-nitropyridine] | 122 | 92 | – | –
19 | Cc1nc(-c2ccc(Nc3nc(NC(C)(C)C)ccc3[N+](=O)[O-])cc2)cs1 [Compound 140, 2-[4-(2-methylthiazol-4-yl)phenylamino]-6-(t-butylamino)-3-nitropyridine] | 118 | 102 | – | –
20 | NC1CCN(c2ccc([N+](=O)[O-])c(Nc3ccc(-c4csc(C5CCCCC5)n4)cc3)n2)CC1 [Compound 161, 2-[4-(2-cyclohexylthiazol-4-yl)phenylamino]-6-(4-aminopiperidino)-3-nitropyridine] | 121 | 98 | – | –
21 | CCN(CC)c1ccc(Nc2nc(NCC(C)C)ccc2[N+](=O)[O-])cc1F [Compound 177, 2-[(3-fluoro-4-diethylamino)phenylamino]-6-(isobutylamino)-3-nitropyridine] | – | – | 107 | 61
22 | O=[N+]([O-])c1ccc(NCc2cccnc2)nc1Nc1ccc(N2CCOCC2)c(F)c1 [Compound 197, 2-[(3-fluoro-4-morpholino)phenylamino]-6-[(3-pyridyl)methylamino]-3-nitropyridine] | – | – | 95 | 81
23 | O=[N+]([O-])c1ccc(NCc2ccncc2)nc1Nc1ccc(N2CCOCC2)c(F)c1 [Compound 198, 2-[(3-fluoro-4-morpholino)phenylamino]-6-[(4-pyridyl)methylamino]-3-nitropyridine] | – | – | 96 | 84
24 | NC1CCN(c2ccc([N+](=O)[O-])c(Nc3ccc(N4CCOCC4)c(F)c3)n2)CC1 [Compound 202, 2-[(3-fluoro-4-morpholino)phenylamino]-6-(4-aminopiperidino)-3-nitropyridine] | – | – | 96 | 90
